Results taken from publication PMC7040082 (Journal of Pharmacokinetics and Pharmacodynamics, 2019).
“And” between values parts separate entries of the source, which are not always exact repeats. Identical values can stand only once. Like-named read-outs stand apart in the source and are kept apart here.

How the values were obtained:
[1] = all samples 20 min to 72 h; ref [1]; cited from earlier work
[2] = for β (PD scale parameter, first arrival time of drug): constrained to 25-30 s; for AUC for CGPC(t) as percent of dose eliminated, 72h-∞: late-time 72 h to ∞ (drug mass remaining at 72 h); for AUC for CGPC(t) as percent of dose eliminated, 1/3-72h: sample-times 20 min to 72 h
[3] = cited from earlier work; for urinary metformin recovery: human, at 60 to 72 h
in vivo = conditions: both, mixed-breed, dog, serum, iv, mean of seven dogs
[4] = Noncompartmental (NC) analysis of IV bolus serum concentrations in dogs
[5] = dog, in vivo; cited from earlier work
[6] = in vivo; cited from earlier work
[7] = GPC fit, single IV bolus, individual dogs (Dog 1-7)
[8] = GPC fit, single IV bolus, mean of seven dogs

## CN(C)C(=N)N=C(N)N [metformin, 1,1-dimethylbiguanide]
[1]
  range of serum sample concentrations: 9.78 to 19,100 ng/ml
[2]; 0 to 72 h (model renal excreted), mean of seven dogs
  AUC for CGPC(t) as percent of dose eliminated, 0-72h: 78.9%
[2]; 0 to 72 h, individual dogs 1-7
  AUC for CGPC(t) as percent of dose eliminated, 0-72h: 91.3% and 71.6% and 84.4% and 79.7% and 67.0% and 82.6% and 75.9%
[2]; GPC fit, individual dogs (Dog 1-7)
  β (PD scale parameter, first arrival time of drug): 30 s and 25 s
[2]; GPC fit, mean of seven dogs
  β (PD scale parameter, first arrival time of drug): 26 s
[2]; [7]
  CL: 11.4 ml/minkg and 14.7 ml/minkg and 9.8 ml/minkg and 11.5 ml/minkg and 26.7 ml/minkg and 19.4 ml/minkg and 12.4 ml/minkg
  Peak (time at the maximum of the GPC model): 1.34 min and 4.85 min and 0.66 min and 6.17 min and 2.21 min and 1.70 min
  a (GD shape parameter): 0.5194 and 0.7629 and 0.3493 and 0.8112 and 0.6689 and 0.6092 and 0.6435
  b (GD rate parameter): 0.6137 per h and 1.0518 per h and 0.7318 per h and 0.9993 per h and 0.9107 per h and 0.8062 per h and 1.1035 per h
  α (PD shape parameter): 0.1929 and 0.1571 and 0.2644 and 0.1365 and 0.2010 and 0.1726 and 0.1199
[2]; [8]
  Peak (time at the maximum of the GPC model): 2.73 min
  a (GD shape parameter): 0.6235
  b (GD rate parameter): 0.8882 per h
  α (PD shape parameter): 0.1778
[2]; GPC model mean CL, RPF≈17.86 mlmin^-1kg^-1 from PAH meta-analysis
  CL as percent of estimated total renal plasma flow (RPF): 84.8%
[2]; GPC model, individual dogs 1-7
  CL GPC: 14.7 mlmin^-1kg^-1 and 9.8 mlmin^-1kg^-1 and 11.5 mlmin^-1kg^-1 and 26.7 mlmin^-1kg^-1 and 19.4 mlmin^-1kg^-1 and 12.4 mlmin^-1kg^-1 and 11.4 mlmin^-1kg^-1
[2]; GPC models, range of seven dogs
  early concentration peak, total elapsed time: 0.66 to 6.17 min
[2]; GPC, GM EPAH of 35 controls
  CL as percent of RPF using geometric means: 84.7%
[2]; at 72 h, […] remaining
  decrease of drug mass in the body from the initial dose: 5 fold
[2]; individual dogs 1-7
  AUC for CGPC(t) as percent of dose eliminated, 72h-∞: 8.7% and 28.4% and 15.6% and 20.3% and 33.0% and 17.4% and 24.1%
  AUC for CGPC(t) as percent of dose eliminated, 1/3-72h: 53.1% and 58.7% and 63.7% and 60.5% and 50.8% and 62.0%
[2]; mean of seven dogs
  AUC for CGPC(t) as percent of dose eliminated, 72h-∞: 21.1%
  AUC for CGPC(t) as percent of dose eliminated, 1/3-72h: 58.5%
[2]; over 72 h
  decrease of serum concentration from estimated peak concentration: 1000 fold
[3]; 48 h, may have been inflated, ref Pentikäinen et al. [21]
  urine recovery from IV metformin: 99.9%
[3]; ref Table 1 of [19]
  urinary metformin recovery: 86%
[3]; ref Table II of [20]
  urinary metformin recovery: 78.9%
In vivo; AUC, GPC fit, single IV bolus
  AUC: 23600 ng·h/mL
In vivo; CL GPC, GPC model
  clearance: 15.1 mL/min/kg
In vivo; CL, GPC fit, single IV bolus
  clearance: 15.1 mL/min/kg
E2 fit, single IV bolus, mean of seven dogs
  AUC: 15.8 mgh/L
E2 fit, mean of seven dogs
  p1 (fraction of AUC from first exponential term): 79.3%
  p2 (fraction of AUC from second exponential term): 20.7%
  λ1: 0.721 h⁻¹
  λ2: 0.0490 h⁻¹
E2 mean CL, RPF≈17.86 mlmin^-1kg^-1
  CL as percent of expected RPF: 123.7%
Biexponential model, mean of seven dogs
  CL E2: 22.1 mlmin^-1kg^-1
Dog 6
  E2 CL-value greater than GPC CL-value: 41%
[4]; NC mean CL, RPF≈17.86 mlmin^-1kg^-1
  CL as percent of expected RPF: 104.7%
[4]; dog 6
  NC CL-value greater than GPC CL-value: 25%

## Nc1ccc(C(=O)NCC(=O)O)cc1 [PAH, p-aminohippurate]
[5]
  CLPAH renal clearance: 13.51 mlmin^-1kg^-1
  EPAH arteriovenous extraction ratio: 0.7564
  nominal canine EPAH: 75.6%
[6]
  EPAH in humans: circa 90%
